The text below walks through data of publication PMC4229100, “A Two-Step Strategy to Enhance Activity of Low Potency Peptides” (PLoS ONE, 2014).

Where two headings read alike, the source gives them in different places. Ends that are not written are not given here. Peptide text beside a SMILES is read from it. * marks the point of attachment. PEG8 = NCCOCCOCCOCCOCCOCCOCCOCCOCCC(=O)O; Palmitoyl = CCCCCCCCCCCCCCCC(=O)*

Data set [1] deals with T1, CCK2R (Homo sapiens, UniProt P32239).
T1 sequence (P32239 1-447): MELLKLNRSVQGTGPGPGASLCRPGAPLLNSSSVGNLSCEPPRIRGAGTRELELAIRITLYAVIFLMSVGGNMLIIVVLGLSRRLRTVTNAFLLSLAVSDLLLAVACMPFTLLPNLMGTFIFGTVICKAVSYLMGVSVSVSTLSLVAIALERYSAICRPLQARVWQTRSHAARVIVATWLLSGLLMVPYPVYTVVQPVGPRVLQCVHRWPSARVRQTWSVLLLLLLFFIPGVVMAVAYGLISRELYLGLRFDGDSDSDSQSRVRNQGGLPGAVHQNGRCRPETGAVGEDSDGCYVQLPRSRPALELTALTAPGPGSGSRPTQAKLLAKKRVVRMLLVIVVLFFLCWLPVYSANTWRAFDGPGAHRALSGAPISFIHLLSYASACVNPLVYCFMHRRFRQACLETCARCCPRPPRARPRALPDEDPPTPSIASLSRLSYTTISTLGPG
Description: Antagonist inhibition of agonist-induced CCK2R signaling (SRE-luciferase, HEK293). Format: cell-based. Set-up: expressed in transfected cells; host or cells: HEK293. On the procedure:
Figure 6 YM022 inhibits CCK2R signaling induced by tethered CCK4-Gly, soluble CCK4-Gly, or lipidated CCK4-Gly. A) YM022 blocks tethered CCK4-Gly mediated CCK2R signaling. […] Four hours following transfection, cells were with treated with increasing concentrations of YM022 for 20 hours. […] B) YM022 blocks s-CCK4-Gly-COOH and l-CCK4-Gly-COOH mediated activation of CCK2R. HEK293 cells were transfected as indicated above. Twenty hours after transfection, cells were with treated with increasing concentrations of YM022 together with either 10 µM of l-CCK4-Gly-COOH or s-CCK4-Gly-COOH.

The target in the next data set is T2, CCK1R (Homo sapiens, UniProt P32238).
T2 sequence (P32238 1-428): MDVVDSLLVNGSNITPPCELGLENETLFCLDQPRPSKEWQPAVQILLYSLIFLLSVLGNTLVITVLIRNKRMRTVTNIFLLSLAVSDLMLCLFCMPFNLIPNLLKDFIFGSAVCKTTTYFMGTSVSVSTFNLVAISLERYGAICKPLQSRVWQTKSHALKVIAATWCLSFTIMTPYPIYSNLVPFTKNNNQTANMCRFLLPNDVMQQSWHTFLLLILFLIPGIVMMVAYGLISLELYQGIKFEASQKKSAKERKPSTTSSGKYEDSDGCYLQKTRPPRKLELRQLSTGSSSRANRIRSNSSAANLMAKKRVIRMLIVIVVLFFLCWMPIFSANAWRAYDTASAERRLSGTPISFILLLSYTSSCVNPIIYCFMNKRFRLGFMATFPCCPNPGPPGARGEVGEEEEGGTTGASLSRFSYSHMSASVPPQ
As to the kind of experiment: SRE-luciferase reporter agonist assay in HEK293 cells transfected with CCK1R. The note with it: HEK293, SRE-Luc; relative to 10 µM s-CCK8-NH2; MTL coexpressed 24 hours, peptides 4 hours.

The target in data set [2] is T1, CCK2R. As to the kind of experiment: SRE-luciferase reporter agonist assay in HEK293 cells transfected with CCK2R. The settings on record: for CCK2R mediated signaling (agonist activity, in words): HEK293, SRE-Luc, relative to 10 µM s-CCK4-NH2, MTL coexpressed 24 hours, peptides 4 hours.
Description: (§1) Human embryonic kidney cells (HEK293) were maintained at 37°C in a humidified 5% CO2 atmosphere and cultured with Dulbecco’s modified Eagle’s medium (Invitrogen, Chicago, IL) containing 10% fetal bovine serum, 100 U/mL penicillin, and 100 µg/mL streptomycin. Cells were seeded into 96-well plates and grown to ∼80% confluence. Cells were transfected for 24 hours using polyethylenimine (Sigma, Atlanta, GA) in serum-free medium [17] with cDNAs encoding, a) tethered ligand (where noted), b) 3 ng of indicated receptor, c) 25 ng of a 5X-SRE-Luc-pest (pGL4.33), a luciferase reporter construct under the control of a serum response element (Promega, Madison, WI), and d) 10 ng of β-galactosidase to control for transfection efficiency.
The CCK2 receptor was cloned as previously reported [18]; the CCK1R cDNA was PCR amplified based on a published sequence [19]. Each receptor cDNA encoding the human sequence was subcloned into pcDNA1.1. […] The nucleotide sequences of all receptor and tethered ligand coding regions were confirmed by automated DNA sequencing and analyzed using Vector NTI software (Invitrogen, Chicago, IL). The expression of membrane tethered Substance P, CCK4, and CCK4-Gly was assessed by ELISA using an antibody directed to the myc epitope tag within the MTL cDNA construct [8].
(§2) Tethered ligand induced signaling was assessed in HEK293 cells 24 hours after transfection. For soluble and lipidated peptides, 20 hours following transfection, cells were stimulated in serum-free medium for an additional 4 hours. […] With tethered ligands, antagonists were added 4 hours after transfection; activity was assessed following an additional 20 hour incubation. Quantification of luciferase and β-galactosidase activities were performed as previously described [6]. Data were analyzed by nonlinear curve fitting using Graph Pad Prism 5.0 software.
HEK293 cells were transiently cotransfected with cDNAs encoding: the designated CCK receptor subtype, a 5X-SRE-Luc-pest reporter construct (pGL4.33), tethered ligand (as indicated) and a β-galactosidase gene to control for transfection efficiency. Tethered ligand activity was measured 24 hours following transfection. To assess activity of soluble and lipidated CCK4-Gly, cells were stimulated for an additional 4 hours with ligand. […] Data represent the mean ± SEM from 3 independent experiments, each performed in triplicate.
The target of data set [3] is T3, NK1R (Homo sapiens, UniProt P25103). Description: cell-based.
T3 sequence (P25103 whole entry): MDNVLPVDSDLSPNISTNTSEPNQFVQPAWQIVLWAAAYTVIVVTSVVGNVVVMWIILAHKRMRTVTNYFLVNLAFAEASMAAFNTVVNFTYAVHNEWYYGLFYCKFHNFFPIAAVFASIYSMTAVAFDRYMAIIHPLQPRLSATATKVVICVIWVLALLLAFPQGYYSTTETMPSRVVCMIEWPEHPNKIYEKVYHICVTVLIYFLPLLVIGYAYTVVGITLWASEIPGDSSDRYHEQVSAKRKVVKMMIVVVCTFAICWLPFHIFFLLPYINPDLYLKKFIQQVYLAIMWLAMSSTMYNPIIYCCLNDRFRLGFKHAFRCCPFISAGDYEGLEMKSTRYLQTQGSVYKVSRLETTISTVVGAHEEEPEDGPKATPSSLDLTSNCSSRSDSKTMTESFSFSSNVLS
Description: as §1
(§3) The expression of membrane tethered Substance P, CCK4, and CCK4-Gly was assessed by ELISA using an antibody directed to the myc epitope tag within the MTL cDNA construct [8].
as §2
(§4) HEK293 cells were transiently cotransfected for 24 hours with cDNAs encoding: the designated NK receptor subtype, a 5X-SRE-Luc-pest reporter construct (pGL4.33), tethered ligand (for MTL assays, left panels), and a β-galactosidase gene to control for transfection variability. For assessment of SMAL induced signaling, cells were stimulated with ligand for an additional 4 hours. […] Data represent the mean ± SEM from 3 independent experiments, each performed in triplicate.
The target of a further data set is T4, NK2R (Homo sapiens, UniProt P21452).
T4 sequence (P21452 1-398): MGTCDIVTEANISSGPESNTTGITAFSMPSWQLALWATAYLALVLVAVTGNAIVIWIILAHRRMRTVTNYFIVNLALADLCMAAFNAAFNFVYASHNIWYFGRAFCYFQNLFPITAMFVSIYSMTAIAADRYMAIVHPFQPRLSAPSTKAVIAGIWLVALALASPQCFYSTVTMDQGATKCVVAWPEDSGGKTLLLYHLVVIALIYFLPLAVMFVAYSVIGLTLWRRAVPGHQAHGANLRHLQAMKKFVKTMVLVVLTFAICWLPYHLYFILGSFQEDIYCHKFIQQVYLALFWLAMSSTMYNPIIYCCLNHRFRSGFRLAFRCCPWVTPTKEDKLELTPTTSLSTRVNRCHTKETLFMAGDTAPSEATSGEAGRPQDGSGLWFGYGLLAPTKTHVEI
As to the kind of experiment: SRE-luciferase reporter agonist assay in HEK293 cells transfected with NK2R. The settings on record: HEK293, SRE-Luc; relative to 1 µM s-SubP-NH2; MTL coexpressed 24 hours, peptides 4 hours.

Data set [4] concerns the target T3, NK1R.
Description: as §1, §3, §2, §4
The target of another data set is T5, NK3R (Homo sapiens, UniProt P29371).
T5 sequence (P29371 1-465): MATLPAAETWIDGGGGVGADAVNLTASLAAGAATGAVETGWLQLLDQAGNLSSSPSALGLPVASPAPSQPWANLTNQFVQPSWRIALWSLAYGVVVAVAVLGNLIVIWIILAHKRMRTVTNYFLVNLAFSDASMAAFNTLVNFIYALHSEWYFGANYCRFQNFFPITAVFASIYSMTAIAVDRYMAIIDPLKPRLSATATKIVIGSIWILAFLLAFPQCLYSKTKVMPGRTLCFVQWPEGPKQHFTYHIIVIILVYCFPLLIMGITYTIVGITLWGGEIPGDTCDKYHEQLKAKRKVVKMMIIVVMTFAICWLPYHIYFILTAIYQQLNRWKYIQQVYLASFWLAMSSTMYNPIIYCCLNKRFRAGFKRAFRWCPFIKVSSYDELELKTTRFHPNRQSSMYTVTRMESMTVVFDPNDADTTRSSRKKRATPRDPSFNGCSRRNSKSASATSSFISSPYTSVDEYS
Description: SRE-luciferase reporter agonist assay in HEK293 cells transfected with NK3R. The note with it: HEK293, SRE-Luc; relative to 1 µM s-SubP-NH2; MTL coexpressed 24 hours, peptides 4 hours.

Description for CCK1R: Human embryonic kidney cells (HEK293) were maintained at 37°C in a humidified 5% CO2 atmosphere and cultured with Dulbecco’s modified Eagle’s medium (Invitrogen, Chicago, IL) containing 10% fetal bovine serum, 100 U/mL penicillin, and 100 µg/mL streptomycin. Cells were seeded into 96-well plates and grown to ∼80% confluence. […]
The CCK2 receptor was cloned as previously reported [18]; the CCK1R cDNA was PCR amplified based on a published sequence [19]. […] The nucleotide sequences of all receptor and tethered ligand coding regions were confirmed by automated DNA sequencing and analyzed using Vector NTI software (Invitrogen, Chicago, IL). The expression of membrane tethered Substance P, CCK4, and CCK4-Gly was assessed by ELISA using an antibody directed to the myc epitope tag within the MTL cDNA construct [8].
(§5) Tethered ligand induced signaling was assessed in HEK293 cells 24 hours after transfection. […] With tethered ligands, antagonists were added 4 hours after transfection; activity was assessed following an additional 20 hour incubation. Quantification of luciferase and β-galactosidase activities were performed as previously described [6]. Data were analyzed by nonlinear curve fitting using Graph Pad Prism 5.0 software. […]
Description for NK2R: as §1, §3, §5
Description for NK3R: as §1, §3, §5

Take `Cc1cccc(NC(=O)N[C@@H]2N=C(c3ccccc3)c3ccccc3N(CC(=O)c3ccccc3C)C2=O)c1` [YM022, (R)-1-[2,3-dihydro-1-(2′-methylphenacyl)-2-oxo-5-phenyl-1H-1,4-benzodiazepin-3-yl]-3-(3-methylphenyl)urea]: the IC50 at CCK2R [1] (agonist 10 µM l-CCK4-Gly-COOH, 4 hours, read-out: IC50 for inhibition of l-CCK4-Gly-COOH induced CCK2R signaling) was 10.2 nM; at CCK2R [1] (agonist 10 µM s-CCK4-Gly-COOH, 4 hours, read-out: IC50 for inhibition of s-CCK4-Gly-COOH induced CCK2R signaling), 0.84 nM; at CCK2R [1] (agonist tCCK4-Gly (coexpressed MTL), antagonist added 4 hours after transfection for 20 hours, read-out: IC50 for inhibition of tCCK4-Gly induced CCK2R signaling), 0.54 nM.
On to `CCCCCCCCCCCCCCCC(=O)NCCOCCOCCOCCOCCOCCOCCOCCOCCC(=O)NCC(=O)NCC(=O)N[C@@H](Cc1c[nH]c2ccccc12)C(=O)N[C@@H](CCSC)C(=O)N[C@@H](CC(=O)O)C(=O)N[C@@H](Cc1ccccc1)C(=O)NCC(=O)O` [l-CCK4-Gly-COOH] ({Palmitoyl-PEG8}-GGWMDFG-OH), for which the “CCK1R mediated signaling (agonist activity, in words)” value on CCK1R was “lacked activity”. At CCK2R [2], the EC50 was above 1000 nM and the “CCK2R mediated signaling (agonist activity, in words)” value is listed as “activated”.
For `CCCCCCCCCCCCCCCC(=O)NCCOCCOCCOCCOCCOCCOCCOCCOCCC(=O)NCC(=O)NCC(=O)N[C@@H](Cc1c[nH]c2ccccc12)C(=O)N[C@@H](CCSC)C(=O)N[C@@H](CC(=O)O)C(=O)N[C@@H](Cc1ccccc1)C(N)=O` [l-CCK4-NH2] ({Palmitoyl-PEG8}-GGWMDF-NH2), at CCK2R [2], it took 2.6 nM to reach a half-maximal effect (EC50) and the “CCK2R mediated signaling (agonist activity, in words)” value is “does not fully activate”.
`CCCCCCCCCCCCCCCC(=O)NCCOCCOCCOCCOCCOCCOCCOCCOCCC(=O)NCCCC[C@H](NC(C)=O)C(=O)NCC(=O)NCC(=O)N[C@@H](CCCNC(=N)N)C(=O)N1CCC[C@H]1C(=O)N[C@@H](CCCCN)C(=O)N1CCC[C@H]1C(=O)N[C@@H](CCC(N)=O)C(=O)N[C@@H](CCC(N)=O)C(=O)N[C@@H](Cc1ccccc1)C(=O)N[C@@H](Cc1ccccc1)C(=O)NCC(=O)N[C@@H](CC(C)C)C(=O)N[C@@H](CCSC)C(=O)O` [l-SubP-COOH] yielded an EC50 on NK1R [3] of 6.1 nM. The “NK2R mediated signaling (agonist activity, in words)” value at NK2R is “no signaling was observed”. Moreover, the “NK1R mediated signaling (agonist activity, in words)” value on NK1R [4] (HEK293, SRE-Luc, relative to 1 µM s-SubP-NH2, MTL coexpressed 24 hours, peptides 4 hours) is “activated”. Moreover, the “NK3R mediated signaling (agonist activity, in words)” value on NK3R is “activated”.
Take `CCCCCCCCCCCCCCCC(=O)NCCOCCOCCOCCOCCOCCOCCOCCOCCC(=O)NCCCC[C@H](Nc1ccc([N+](=O)[O-])c2nonc12)C(=O)NCC(=O)NCC(=O)N[C@@H](CCCNC(=N)N)C(=O)N1CCC[C@H]1C(=O)N[C@@H](CCCCN)C(=O)N1CCC[C@H]1C(=O)N[C@@H](CCC(N)=O)C(=O)N[C@@H](CCC(N)=O)C(=O)N[C@@H](Cc1ccccc1)C(=O)N[C@@H](Cc1ccccc1)C(=O)NCC(=O)N[C@@H](CC(C)C)C(=O)N[C@@H](CCSC)C(N)=O` [l-SubP-NH2]: the response at NK1R [3] was half-maximal at 0.4 nM (EC50). In addition, on NK1R [4], the “NK1R mediated signaling (agonist activity, in words)” value is listed as “fully active” and the “Potency at NK1R compared with soluble counterpart (in words)” value was “more potent than s-SubP-NH2”.
WMDFG [s-CCK4-Gly-COOH] came in with a half-maximal effective concentration (EC50) on CCK2R [2] above 1000 nM.
